Reference: patent US20140234502A1, “Treatment of Produce” (Rohm and Haas Company, priority 2009, published 2014)

How the values were obtained:
Type in all cases: in vivo, pear
[1] = system: William's Pears; experiment: Firmness of William's pears by penetrometer after treatment, non-ambient storage and shelf life; details: South Africa, RA for 8 weeks, ambient for 5 days
Source text: (§1) Pears (Conference, William's/Bartlett, or Packam's) were harvested at maturity for long storage. Number of fruits and replicates were selected according to the size of the chamber in which to apply 1-MCP and according to the statistical design. Airtight containers in the range of 1 cubic meter were used for the application of both 1-MCP and ethylene. 1-MCP was released from SmartFresh™ powder that contained 0.14% 1-MCP by weight (obtained from AgroFresh, Inc.). The amount of that SmartFresh™ powder was chosen to yield the target atmospheric concentration of 1-MCP in the chosen container. For example, the 1-MCP released from 1000 mg of that SmartFresh™ powder in 1 cubic meter yielded 1-MCP concentration in the atmosphere of 625 ppb.
(§2) The chosen amount of SmartFresh™ powder was dissolved in water into a tight flask and shaken until all the powder was dissolved. The flask was then put it into the airtight container and opened, to release the 1-MCP. At the same time of the opening of the 1-MCP flask, ethylene was injected with a syringe into the airtight container. Ethylene was taken from a compressed tank at known concentration: either taken directly or released into a flask. In the latter case the concentration was measured by gas-chromatograph to determine the quantity of volume to inject into the airtight container to get the target concentration.
The exposure to atmosphere containing either 1-MCP alone or 1-MCP and ethylene was done on cold pears (already cooled down to non-ambient storage temperature) within a maximum of 7 days from harvest and lasted 24 hours. At the end of the application, the airtight container was vented for 15 minutes and the fruits were put into RA or CA storage. RA storage was at temperature of −1° C. to 1° C. and at relative humidity of 80% to 98%. […]
(§3) Pears denoted with a single number (e.g., “300”) received 1-MCP treatment with that concentration, in ppb, of 1-MCP in the atmosphere (e.g., 300 ppb) and were not exposed to exogenous ethylene. […] Reported quantity is “firmness” (“F”), the penetrometer force in kgf. […]

[2] = system: Packam's Pears; experiment: Firmness of Packam's pears by penetrometer after treatment, non-ambient storage and shelf life; details: South Africa, ambient 5 days
Source text: as §1, §2
(§4) The exposure to atmosphere containing either 1-MCP alone or 1-MCP and ethylene was done on cold pears (already cooled down to non-ambient storage temperature) within a maximum of 7 days from harvest and lasted 24 hours. At the end of the application, the airtight container was vented for 15 minutes and the fruits were put into RA or CA storage. RA storage was at temperature of −1° C. to 1° C. and at relative humidity of 80% to 98%. CA storage had the same temperature and humidity of RA storage, had oxygen level of 1% to 3%, by volume based on the volume of the atmosphere and had carbon dioxide level of 0.5% to 2%, by volume based on the volume of the atmosphere.
In addition, samples of pears (from the same orchards from which pears treated with 1-MCP alone or 1-MCP and ethylene were harvested) were put into an airtight container for 24 hours at the temperature as the treated pears in order to reproduce the same environmental conditions. Then they were stored in the same rooms or in separated rooms in the same conditions of RA and CA as the treated pears. […]
as §3

[3] = system: Conference Pears; experiment: Firmness of Conference pears by penetrometer after treatment, non-ambient storage and shelf life; design: key to SW France F (firmness) / Italy F (firmness) / Average F (firmness): penetrometer force in kgf (8 mm probe); details: for ES A F (firmness): farm ES A; for ES B F (firmness): farm ES B; for IT F (firmness): farm IT; for firmness: Example 9, CA 6 months; for Italy F (firmness) / firmness: Italy; for Orchard #1 F (firmness) / Orchard #2 F (firmness) / Orchard #3 F (firmness): Example 11, Spain, RA 3 months
Source text: as §1, §2, §4
In addition, samples of pears (from the same orchards from which pears treated with 1-MCP alone or 1-MCP and ethylene were harvested) were put into an airtight container for 24 hours at the temperature as the treated pears in order to reproduce the same environmental conditions. Then they were stored in the same rooms or in separated rooms in the same conditions of RA and CA as the treated pears. These pears received no exposure to 1-MCP, exogenous ethylene, or any combination thereof, and they are labeled “control” below.
Length of non-ambient storage at present commercial temperature and storage regime was generally of 2-4 months in RA and 6 months in CA, unless otherwise specified, according to normal commercial practice.
All pears received the same progression of non-ambient storage followed by exposure to ambient conditions (“shelf life”).
Pears denoted with a single number (e.g., “300”) received 1-MCP treatment with that concentration, in ppb, of 1-MCP in the atmosphere (e.g., 300 ppb) and were not exposed to exogenous ethylene. Pears denoted with two numbers (e.g. “300+600”) were treated with both that concentration in ppb of 1-MCP and that concentration in ppb of ethylene (e.g., 300 ppb of 1-MCP and 600 ppb of ethylene). The firmness of pears was tested using commercial penetrometers with test probe of 8 mm diameter. Reported quantity is “firmness” (“F”), the penetrometer force in kgf.

[4] = system: Conference Pears; experiment: Color rating of Conference pears; details: ambient 5-8 days; for Italy color / SW France color: scale of 0 (green) to 5 (yellow)
Source text: as §1, §2, §4
Pears were tested for firmness, as described above, and were rated for color on a scale of 0 (green) to 5 (yellow).

[5] = system: Conference Pears; experiment: Inspection of Conference pears for rot, bruising and internal browning
Source text: as §1, §2, §4
After RA storage, pears were exposed to ambient for the number of days shown below and then inspected for rot, bruising, and internal browning (“I.B.”). Results shown are the percentage of pears having the disorder.
Pears from SW France were examined as in Example 7, and the percent disordered fruit was as follows: […]

[6] = system: Conference Pears; experiment: Examination of Conference pears for scald; details: Example 9, CA 6 months, Italy
Source text: as §1, §2, §4
Pears from Italy (the same pears whose firmness is reported herein above in Example 5) were examined for scald after exposure to ambient conditions for the number of days shown below.

[7] = Example 3, RA 3 months, ambient 5 to 8 days
[8] = Example 4, CA 6 months, ambient 5 to 8 days
[9] = Example 5, RA 3 months, ambient 5-8 days
[10] = Example 6, CA 6 months, ambient 5-8 days
[11] = Example 7, RA 4 months, SW France, 13 ambient days
[12] = Example 8, CA 6 months, ambient 13 days, SW France

For `CC1=CC1` [300(C), 1-MCP], the “farm 1 F (firmness)” value ([1]; farm 1) was 6.7 kgf, the “farm 2 F (firmness)” value ([1]; farm 2) was 5.6 kgf and the “farm 3 F (firmness)” value ([1]; farm 3) was 7.2 kgf. The “8 weeks F (firmness)” value ([2]; RA for 8 weeks) was 6.8 kgf, the “12 weeks F (firmness)” value ([2]; RA for 12 weeks) was 5.8 kgf and the “AV F (firmness), average of the results from the seven farms” value [3, 7] was 4.6 kgf. For the same compound, the “ES A F (firmness)” value [3, 7] was 2.5 kgf, the “ES B F (firmness)” value [3, 7] was 3.4 kgf and the “FR A F (firmness)” value ([3]; Example 3, RA 3 months, ambient 5 to 8 days, farm FR A) was 5.3 kgf. For the same compound, the “FR B F (firmness)” value ([3]; Example 3, RA 3 months, ambient 5 to 8 days, farm FR B) was 5.1 kgf, the “IT F (firmness)” value [3, 7] was 4.8 kgf and the “NL A F (firmness)” value ([3]; Example 3, RA 3 months, ambient 5 to 8 days, farm NL A) was 5.3 kgf. For the same compound, the “NL B F (firmness)” value ([3]; Example 3, RA 3 months, ambient 5 to 8 days, farm NL B) was 5.6 kgf, the “Av F (firmness), average of the results from the six farms” value [3, 8] was 4.1 kgf and the “ES A F (firmness)” value [3, 8] was 4.2 kgf. For the same compound, the “ES B F (firmness)” value [3, 8] was 3.3 kgf, the “FR F (firmness)” value ([3]; Example 4, CA 6 months, ambient 5 to 8 days, farm FR) was 4.7 kgf and the “IT F (firmness)” value [3, 8] was 4.7 kgf. For the same compound, the “NL A F (firmness)” value ([3]; Example 4, CA 6 months, ambient 5 to 8 days, farm NL A) was 4.4 kgf, the “NL B F (firmness)” value ([3]; Example 4, CA 6 months, ambient 5 to 8 days, farm NL B) was 3.4 kgf and the “Italy F (firmness)” value [3, 9] was 4.8. For the same compound, the “SW France F (firmness)” value [3, 9] was 5.1, the “Italy F (firmness)” value [3, 10] was 4.7 and the “SW France F (firmness)” value [3, 10] was 4.7. For the same compound, the “Average F (firmness)” value ([3]; Example 6, CA 6 months, ambient 5-8 days, average of SW France and Italy) was 4.7, the firmness ([3]; 0 ambient days) was 6.5 kgf and the firmness ([3]; 7 ambient days) was 4.7 kgf. For the same compound, the “Average F (firmness), average of the two orchards” value ([3]; Example 10, RA 3 months, ambient 5 days) was 4.48 kgf, the “NL A F (firmness)” value ([3]; Example 10, RA 3 months, ambient 5 days, NL A) was 5.59 kgf and the “NL B F (firmness)” value ([3]; Example 10, RA 3 months, ambient 5 days, NL B) was 3.37 kgf. For the same compound, the “Orchard #1 F (firmness)” value ([3]; 0 days ambient) was 5.72 kgf, the “Orchard #2 F (firmness)” value ([3]; 0 days ambient) was 5.92 kgf and the “Orchard #3 F (firmness)” value ([3]; 0 days ambient) was 5.97 kgf. The “Orchard #1 F (firmness)” value ([3]; 7 days ambient) was 5.84 kgf, the “Orchard #2 F (firmness)” value ([3]; 7 days ambient) was 5.53 kgf and the “Orchard #3 F (firmness)” value ([3]; 7 days ambient) was 5.44 kgf. For the same compound, the “Orchard #1 F (firmness)” value ([3]; 12 days ambient) was 5.55 kgf, the “Orchard #2 F (firmness)” value ([3]; 12 days ambient) was 5.68 kgf and the “Orchard #3 F (firmness)” value ([3]; 12 days ambient) was 5.62 kgf. The Italy color ([4]; Example 5, RA 3 months) was 1.9, the “SW France color” value ([4]; Example 5, RA 3 months) was 2.95 and the Italy color ([4]; Example 6, CA 6 months) was 2.4. The “SW France color” value ([4]; Example 6, CA 6 months) was 2.7, the Average color ([4]; Example 6, CA 6 months, average of SW France and Italy, scale 0 (green) to 5 (yellow)) was 2.6 and the “percentage of pears having internal browning (I.B.)” value (“percentage … (I.B.)” below) ([5]; Example 7, RA 4 months, Loire, France, 11 ambient days) was 0 percentage. For the same compound, the “percentage … (I.B.)” value ([5]; Example 7, RA 4 months, Loire, France, 13 ambient days) was 0 percentage, the “percentage … (I.B.)” value ([5]; Example 7, RA 4 months, Loire, France, 15 ambient days) was 0 percentage and the “percentage of pears having bruising” value [5, 11] was 0 percentage. For the same compound, the “percentage … (I.B.)” value [5, 11] was 0 percentage, the “percentage of pears having rot” value [5, 11] was 0 percentage and the “percent disordered fruit: I.B.” value [5, 12] was 34%. For the same compound, the “percent disordered fruit: rot” value [5, 12] was 12%, the percent with scald ([6]; 0 ambient days) was 0% and the percent with scald ([6]; 7 ambient days) was 1%.
